Experiments:
[1] = Microsomal metabolic stability, rat; type: in vitro ADME
Procedure: (§1) Metabolic stability (MS) evaluation was conducted for the selected compounds by measuring in vitro stability in two species, rat and human, according to the microsomal stability measurement method. As a result, it was identified that MS varied depending on the transformation of parts A, B, and C.

[2] = test system: Raw 264.7 cells; assay: LN (Laminin 421)-induced immune cell migration, Transwell; type: cell-based; conditions: Mus musculus, RAW264.7
Outline: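 Raw 264.7 cells (1 x 10^5/well) seeded in upper chamber of gelatin-coated 5 µm Transwell with compound at 3 µM. Serum-free DMEM with Laminin 421 (1 µg/ml) in lower chamber. After 24 h, migrated cells fixed, hematoxylin-stained and counted by microscopy; expressed as % inhibition versus control.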

[3] = test system: Raw264.7 cells; assay: KARS1-induced trans-migration assay; type: cell-based, mouse; conditions: Mus musculus, RAW264.7
Outline: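 Mouse Raw264.7 macrophage trans-migration induced by externally added KARS1 protein in place of laminin. Candidates with high inhibition at 1 µM were then tested at 0.1~4 µM.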

[4] = Rat pharmacokinetics (po and iv) and bioavailability; type: in vivo; conditions: for Cmax / Tmax / half-life / AUC: in vivo
Procedure: For this purpose, formulations suitable for peroral administration (po) and intravenous injection (iv) for each compound were first selected to ensure stable PK progression.
The formulation was selected under the condition of maintaining a clear solution for more than 1 hour at 10 and 30 mpk doses based on po, and the iv formulation was modified when iv use was not possible based on po (Table 8).
To confirm the oral administration potential of the selected compounds, 10 mpk rat po PK was conducted. The PK profile and key indicators after administering 10 mpk to five compounds, C0001, 25, 41, 42, and 43, are shown in Figure 3 and Table 9.
Based on the previous 10 mpk po rat PK results, 30 mpk po rat PK was conducted for four compounds, C0001, 25, 41, and 43, to confirm changes in the blood PK profile of the substances with increasing doses.
For these compounds, 2 mpk iv rat PK was conducted to calculate bioavailability (BA) (Table 11).

[5] = S9 metabolic stability, mouse; type: in vitro ADME
Procedure: (§2) Among these, secondary MS measurements were conducted for Compound 25 (C0047), Compound 43 (C0216), and C0001 using the S9 method. This test measured the remaining % at 30, 45, and 60 minutes for four species: mouse, rat, dog, and human.

[6] = target: T1, KARS1 and 37LR (Homo sapiens, UniProt Q15046); assay: Cell-free ELISA of KARS1 and 37LR (laminin receptor) binding; conditions: 10 µM compound, 1 hour, plate coated with KARS1 (1-207aa), LRF
T1 construct: KARS1 (1-207aa)
Procedure: Next, based on the mechanism of action, a cell-free ELISA analysis was conducted to select compounds with high inhibitory activity on the binding of KARS1 and LR (laminin receptor).

[7] = S9 metabolic stability, human; type: in vitro ADME
Procedure: as §2

[8] = Organ distribution; type: in vivo; set-up: Organ distribution Plasma (ng/ml): concentration or dose not given beside the values
[9] = Microsomal metabolic stability, human; type: in vitro ADME
Procedure: as §1

[10] = S9 metabolic stability, dog; type: in vitro ADME
Procedure: as §2

[11] = S9 metabolic stability, rat; type: in vitro ADME
Procedure: as §2

T1 sequence (Q15046 1-207): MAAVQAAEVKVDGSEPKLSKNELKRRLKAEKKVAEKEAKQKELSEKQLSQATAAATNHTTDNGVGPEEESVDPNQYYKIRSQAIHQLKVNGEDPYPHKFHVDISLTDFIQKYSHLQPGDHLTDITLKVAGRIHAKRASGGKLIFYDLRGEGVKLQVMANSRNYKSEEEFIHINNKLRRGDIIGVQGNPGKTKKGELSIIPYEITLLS

Metabolic stability (% remaining at 30 min) Rat [1]: 50%
EC50 ([2]; LN-induced cell migration, read-out: EC50 for cell migration inhibition induced by LN): 7.93 µM
EC50 ([3]; KARS1-induced cell migration, 0.1~4 µM): 0.75 µM
Cmax ([4]; 10 mg/kg, po, 10 mpk): 2020 ng/mL
Tmax ([4]; 10 mg/kg, po, 10 mpk): 0.5 h
half-life ([4]; 10 mg/kg, po, 10 mpk): 1.83 h
Cmax ([4]; 30 mg/kg, po, 30 mpk): 4720 ng/mL
Tmax ([4]; 30 mg/kg, po, 30 mpk): 2 h
half-life ([4]; 30 mg/kg, po, 30 mpk): 2.67 h
AUC ([4]; iv, 2 mg/kg, 2 mpk): 3440 ng·h/mL
AUC ([4]; po, 10 mg/kg, 10 mpk): > 5000 ng·h/mL
AUC ([4]; po, 10 mg/kg, 10 mpk (Table 11)): 5830 ng·h/mL
AUC ([4]; po, 30 mg/kg, 30 mpk): 25600 ng·h/mL
AUC ([4]; po, 30 mg/kg, 30 mpk (Table 11)): 25600 ng·h/mL
BA (%) ([4]; po, 10 mpk against iv 2 mpk): 33.9%
BA (%) ([4]; po, 30 mpk against iv 2 mpk): 49.6%
Metabolic stability (% remaining at each time) Mouse (min) 30 ([5]; 30 min): 67.1%
Metabolic stability (% remaining at each time) Mouse (min) 45 ([5]; 45 min): 62.3%
Metabolic stability (% remaining at each time) Mouse (min) 60 ([5]; 60 min): 49.6%
inhibition at 10 µM [6]: 64.5%
Metabolic stability (% remaining at each time) Human (min) 30 ([7]; 30 min): 59.1%
Metabolic stability (% remaining at each time) Human (min) 45 ([7]; 45 min): 50.2%
Metabolic stability (% remaining at each time) Human (min) 60 ([7]; 60 min): 46.2%
Organ distribution (ratio per plasma) Brain ([8]; 0.5 h): 0.02
Organ distribution (ratio per plasma) Brain ([8]; 6.0 h): 0.01
Organ distribution (ratio per plasma) Heart ([8]; 0.5 h): 0.06
Organ distribution (ratio per plasma) Heart ([8]; 6.0 h): 0.03
Organ distribution (ratio per plasma) Kidney ([8]; 0.5 h): 0.01 / 0.01
Organ distribution (ratio per plasma) Kidney ([8]; 6.0 h): 0.01 / 0.01
Organ distribution (ratio per plasma) Liver ([8]; 0.5 h): 19.1 / 19.1
Organ distribution (ratio per plasma) Liver ([8]; 6.0 h): 19.1 / 19.1
Organ distribution (ratio per plasma) Lung ([8]; 0.5 h): 0.08
Organ distribution (ratio per plasma) Lung ([8]; 6.0 h): 0.06
Organ distribution Plasma (ng/ml) ([8]; 0.5 h): 3,145 ng/ml
Organ distribution Plasma (ng/ml) ([8]; 6.0 h): 1,769 ng/ml
Metabolic stability (% remaining at 30 min) Human [9]: 56%
Metabolic stability (% remaining at each time) Dog (min) 30 ([10]; 30 min): 80.7%
Metabolic stability (% remaining at each time) Dog (min) 45 ([10]; 45 min): 85.6%
Metabolic stability (% remaining at each time) Dog (min) 60 ([10]; 60 min): 75.9%
Metabolic stability (% remaining at each time) Rat (min) 30 ([11]; 30 min): 79.6%
Metabolic stability (% remaining at each time) Rat (min) 45 ([11]; 45 min): 76.6%
Metabolic stability (% remaining at each time) Rat (min) 60 ([11]; 60 min): 83.1%
Compound: COc1ccc(CCN(Cc2ccc(C#CC(=O)O)cc2)c2nc3cccc(F)c3s2)cc1 [Compound C0001, reference compound]
inhibition at 3 µM ([2]; 3 µM compound, LN (Laminin 421 1 µg/ml), 24 hours, % inhibition compared to control group, read-out: Migration inhibitor % (3uM)): 41.9%
inhibition at 1 µM ([3]; 1 µM compound, read-out: KARS1-induced Raw264.7 cell migration (% inhibition, 1uM)): 68.7%

From EP4656630A1, “NOVEL COMPOUND AS LYSYL-TRNA SYNTHETASE 1 INHIBITOR, AND USE THEREOF” (Zymedi Co., Ltd., priority 2023, dated 2024)
